What all share (type): cell-based
For one assay, the system named is 2780AD. Kind of assay: MTT growth inhibition, 2780AD adriamycin (doxorubicin) resistant ovarian cancer cell line. Here is the method: (§1) The cells used for the anticancer activity measurements were the parental ovarian cell line designated as A2780, the doxorubicin-resistant variant designated as 2780AD, and the cisplatin-resistant variant designated as 2780CP (also known as CP70). Drug sensitivity in these cell lines was measured by the standard MTT assay (Carmichael et al., 1987, Cancer Research, 47: 936) with a 24 hour drug exposure time. The values obtained are mean values of triplicate measurements.

The test system of a further assay is A2780. Kind of assay: MTT growth inhibition, A2780 parental ovarian cancer cell line. The settings on record: MTT assay, 24 hour drug exposure, mean of triplicate, read-out: Growth Inhibition of Ovarian Cancer Cell Lines (IC50/nM) A2780. Here is the method:
as §1
(Tetrazolium dyes change colour on reduction, which living cells bring about.)

In another assay the test system is 2780CP. Kind of assay: MTT growth inhibition, 2780CP cisplatin resistant ovarian cancer cell line. Here is the method: as §1
The next assay deals with CH1cisR. Kind of assay: Antitumour activity in drug resistant ovarian cancer cell line CH1cisR.
The test system of another assay is SKOV-3. Kind of assay: Antitumour activity in drug resistant ovarian cancer cell line SKOV-3. Particulars: SKOV-3 drug resistant ovarian cancer cell line.
The mark [1] stands for this setting: 2780AD adriamycin resistant variant, MTT assay, 24 hour drug exposure, mean of triplicate, read-out: Growth Inhibition of Ovarian Cancer Cell Lines (IC50/nM) 2780AD.
[2] abbreviates: 2780CP cisplatin resistant variant, MTT assay, 24 hour drug exposure, mean of triplicate, read-out: Growth Inhibition of Ovarian Cancer Cell Lines (IC50/nM) 2780CP.

Where two headings read alike, the source gives them in different places.

Consider `COc1cccc2c1C(=O)c1c(O)c3c(c(O)c1C2=O)C[C@@](O)(C(=O)CO)C[C@@H]3O[C@H]1C[C@H](N)[C@H](O)[C@H](C)O1` [Adriamycin, adriamycin], for which the IC50 is 4860 ± 510 nM in the assay on 2780AD (setting [1]), 5 ± 1.1 nM with A2780 (Homo sapiens) and 13.3 ± 0.9 nM in the assay on 2780CP (setting [2]).
Take `N.N.[Cl][Pt][Cl]` [Cisplatin, cisplatin]: the IC50 in the assay on 2780AD (setting [1]) amounted to 3020 ± 220 nM; in the assay with A2780, 340 ± 60 nM; in the assay with 2780CP (setting [2]) it was 2620 ± 730 nM.
Take `CN(C)CCNc1ccc(NCCN(CCCl)CCCl)c2c1C(=O)c1c(O)ccc(O)c1C2=O` [Compound (2)]: the IC50 in the assay with CH1cisR was found to be 19 nM; with 2780AD (2780AD, read-out: IC50 2780AD), 16 nM; in the assay on SKOV-3 it was 490 nM; in the assay with A2780 it was 4 ± 0.6 nM; in the assay on 2780CP (setting [2]), 11.8 ± 1.4 nM; in the assay on 2780CP (2780CP, read-out: IC50 2780CP) it was 12 nM.

Values taken from US6465522B1, “Anthraquinone anticancer drugs” (priority 1998, dated 2002).
